Common to all, as to assay: competitive ABPP of Abhd10 versus anti-targets – biochemical, fluorescence, gel-based, mouse proteome, selectivity assay for PME-1 inhibitor project, late-stage follow-up (AID 588807)
The target of assay [1] is Prolyl endopeptidase (Mus musculus) (UniProt Q9QUR6). To be noted: PREP, anti-target, stronger effect = higher value.
In assay [2] the target is Palmitoyl-protein thioesterase ABHD10, mitochondrial (Mus musculus) (UniProt Q6PE15). As to conditions: stronger effect = higher value.
Palmitoyl-protein thioesterase ABHD10, mitochondrial (Mus musculus), sequence (Q6PE15 whole entry, looked up): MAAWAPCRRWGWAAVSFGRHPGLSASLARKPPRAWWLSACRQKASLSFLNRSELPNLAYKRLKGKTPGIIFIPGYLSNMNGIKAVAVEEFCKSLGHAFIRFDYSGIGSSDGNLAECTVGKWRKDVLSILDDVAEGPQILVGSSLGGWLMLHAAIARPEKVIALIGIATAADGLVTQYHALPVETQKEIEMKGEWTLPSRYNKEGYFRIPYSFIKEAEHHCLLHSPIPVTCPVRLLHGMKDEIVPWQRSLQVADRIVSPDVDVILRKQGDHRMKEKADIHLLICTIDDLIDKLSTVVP
A further assay deals with Magl. As to conditions: anti-target, at 10 µM, stronger effect = higher value.
Another assay relates to Kiaa1363. To be noted: anti-target, at 10 µM, stronger effect = higher value.
The test system of a further assay is APEH. To be noted: anti-target, at 10 µM, stronger effect = higher value.
Assay [3] addresses Monoacylglycerol lipase ABHD6 (Mus musculus) (UniProt Q8R2Y0). As to conditions: anti-target, stronger effect = higher value.

Activity calls are given as the source filed them. How the calls were made is not given here.

Here are results for eight compounds from PubChem BioAssay AID588807 (The Scripps Research Institute Molecular Screening Center, 2011).

In general, inhibition refers to the change of the read-out against control, counted positive when it falls.

Prolyl endopeptidase (Mus musculus), sequence (Q9QUR6 whole entry, looked up): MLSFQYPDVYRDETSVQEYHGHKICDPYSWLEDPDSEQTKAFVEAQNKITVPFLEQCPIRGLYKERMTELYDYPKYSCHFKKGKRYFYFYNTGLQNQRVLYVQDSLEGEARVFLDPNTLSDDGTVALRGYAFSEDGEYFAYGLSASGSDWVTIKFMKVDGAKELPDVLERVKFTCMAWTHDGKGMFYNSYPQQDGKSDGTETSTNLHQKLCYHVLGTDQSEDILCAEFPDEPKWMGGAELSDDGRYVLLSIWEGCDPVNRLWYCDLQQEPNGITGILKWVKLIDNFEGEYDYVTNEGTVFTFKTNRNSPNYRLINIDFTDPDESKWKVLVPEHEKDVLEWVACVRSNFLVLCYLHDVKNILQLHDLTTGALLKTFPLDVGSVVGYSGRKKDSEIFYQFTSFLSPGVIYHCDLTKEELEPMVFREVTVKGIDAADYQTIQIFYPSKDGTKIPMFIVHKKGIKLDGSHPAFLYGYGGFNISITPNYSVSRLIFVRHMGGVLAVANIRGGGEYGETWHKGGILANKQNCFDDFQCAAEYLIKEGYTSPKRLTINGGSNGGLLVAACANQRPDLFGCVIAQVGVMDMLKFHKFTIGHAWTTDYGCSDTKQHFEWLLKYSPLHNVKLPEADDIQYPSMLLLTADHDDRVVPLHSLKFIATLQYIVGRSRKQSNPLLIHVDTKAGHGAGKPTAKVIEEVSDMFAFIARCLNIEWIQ
Monoacylglycerol lipase ABHD6 (Mus musculus), sequence (Q8R2Y0 whole entry, looked up): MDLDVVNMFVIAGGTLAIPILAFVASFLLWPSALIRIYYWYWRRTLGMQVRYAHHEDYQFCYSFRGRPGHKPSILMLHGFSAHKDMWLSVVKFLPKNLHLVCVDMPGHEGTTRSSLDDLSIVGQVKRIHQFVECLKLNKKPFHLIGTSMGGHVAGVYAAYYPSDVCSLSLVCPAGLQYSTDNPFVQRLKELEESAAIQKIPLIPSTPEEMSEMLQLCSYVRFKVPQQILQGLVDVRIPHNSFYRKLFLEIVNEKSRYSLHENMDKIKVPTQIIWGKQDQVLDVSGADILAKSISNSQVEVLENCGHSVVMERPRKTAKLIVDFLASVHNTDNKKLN

On to `C=CCOC(=O)N1C(=O)[C@@](CC)(c2ccccc2)N1C(=O)OC`, for which the inhibition in assay [1] (at 10 µM) is 25% (inactive); in assay [2] (at 10 µM), 90% (inactive); in assay [2] (inhibition, at 0.1 µM), 10%; in assay [2] (inhibition, at 1 µM), 70%; in the assay with Magl, 0% (inactive); in the assay with Kiaa1363, 10% (inactive). The inhibition is 40% (inactive) in the assay with APEH; 35% (inactive) in assay [3] (at 10 µM); 10% in assay [3] (inhibition, at 1 µM).

For the compound `CC[C@@]1(c2ccc(C)cc2)C(=O)N(C(=O)OC(C)C)N1C(=O)OC(C)C`, the inhibition in assay [1] (at 10 µM) is 75% (inactive); in assay [1] (inhibition, at 1 µM) it was 30%; in assay [2] (at 10 µM), 95%; in assay [2] (inhibition, at 0.1 µM) it was 90%; in assay [2] (inhibition, at 1 µM), 90%; in the assay on Magl, 0% (inactive). Also, the inhibition is 0% (inactive) with Kiaa1363, 15% (inactive) with APEH and 50% (inactive) in assay [3] (at 10 µM).

Regarding `CC[C@@]1(c2cccc(C)c2)C(=O)N(C(=O)OC(C)C)N1C(=O)OC(C)C`, the inhibition in assay [1] (at 10 µM) was 55% (inactive); in assay [1] (inhibition, at 1 µM) it was 20%; in assay [2] (at 10 µM) it was 100% (inactive); in assay [2] (inhibition, at 0.1 µM), 30%; in assay [2] (inhibition, at 1 µM) it was 100%; with Magl, 0% (inactive). In addition, the inhibition was 0% (inactive) with Kiaa1363; 75% (inactive) in the assay with APEH; 70% (inactive) in assay [3] (at 10 µM); 20% in assay [3] (inhibition, at 1 µM).

With `CC[C@@]1(c2cccc(OC)c2)C(=O)N(C(=O)OC(C)C)N1C(=O)OC(C)C`, the inhibition in assay [1] (at 10 µM) is 0% (inactive); in assay [2] (at 10 µM), 95% (inactive); in assay [2] (inhibition, at 0.1 µM) it was 40%; in assay [2] (inhibition, at 1 µM), 90%; with Magl it was 0% (inactive); with Kiaa1363, 0% (inactive). The inhibition in the assay on APEH is 0% (inactive); in assay [3] (at 10 µM) it was 25% (inactive).

`CC[C@@]1(c2cccc(C)c2)C(=O)N(C(=O)OC)N1C(=O)OC(C)C`: the inhibition in assay [1] (at 10 µM) was 70% (inactive); in assay [1] (inhibition, at 0.1 µM), 20%; in assay [1] (inhibition, at 1 µM), 35%; in assay [2] (at 10 µM), 100% (inactive); in assay [2] (inhibition, at 0.1 µM), 20%; in assay [2] (inhibition, at 1 µM), 95%. The inhibition was 0% (inactive) in the assay with Magl, 0% (inactive) in the assay on Kiaa1363, 20% (inactive) in the assay on APEH and 75% (inactive) in assay [3] (at 10 µM).

Turning to `CC[C@@]1(c2cccc(OC)c2)C(=O)N(C(=O)OC)N1C(=O)OC`, the inhibition in assay [1] (at 10 µM) is 0% (inactive); in assay [2] (at 10 µM), 90% (inactive); in assay [2] (inhibition, at 1 µM), 65%; in the assay with Magl, 0% (inactive); in the assay with Kiaa1363, 0% (inactive); with APEH, 0% (inactive). In addition, in assay [3] (at 10 µM), the inhibition is 0% (inactive).

As for `CC[C@@]1(c2ccc(Cl)c(Cl)c2)C(=O)N(C(=O)OC(C)C)N1C(=O)OC(C)C`, the inhibition was 80% (inactive) in assay [1] (at 10 µM); 90% (inactive) in assay [2] (at 10 µM); 25% in assay [2] (inhibition, at 0.1 µM); 90% in assay [2] (inhibition, at 1 µM); 25% (inactive) in the assay with Magl; 0% (inactive) in the assay with Kiaa1363. The inhibition (in the assay with APEH; in assay [3] (at 10 µM)) was 50% (inactive) in each case.

Regarding `COC(=O)N1C(=O)[C@](c2ccccc2)(C2CCCC2)N1C(=O)OC`, the inhibition in assay [1] (at 10 µM) was 0% (inactive); in assay [2] (at 10 µM) it was 0% (inactive); in the assay with Magl, 0% (inactive); with Kiaa1363, 0% (inactive); in the assay on APEH, 85% (inactive); in assay [3] (at 10 µM), 0% (inactive).
